# Measured values as given in patent US20230203126A1, “A COMPOSITION COMPRISING S-ARRESTIN PEPTIDES” (WORG PHARMACEUTICALS (HANGZHOU) CO., LTD., priority 2019, published 2023).
# T1: HLA-DR3 (HLA-DRA and DRB1*0301) on CD11c+ dendritic cells of DR3tg mice (human, UniProt P01903 26-254; P79483 30-266)
# T1 construct: whole, on cells; DR3tg mice express the HLA-DRB1*0301 molecule but not the mouse MHC-II molecule; also called MHC class II; MHC II molecules
# T1 MHC II alpha: not shown
# T1 MHC II beta: not shown
# Test system: SAg-specific hybridoma cells with fresh or fixed APC (VAVY) cells, MHCII
# Assay: Antigen processing independent presentation system (APIPS) assay
# Format: cell-based, DR3tg mice
# Details: 10 or 25 µg/ml peptide, IL-2 ELISA after 48 h
# Method: FIG. 10: Variants of peptide 15N3K are apitopes. The ability of variants of the 15N3K peptide to behave as apitopes (i.e. bind to an MHCII molecule and be presented to a T cell by an antigen-presenting cell without undergoing antigen processing) was tested using an APIPS assay. DR3tg mice were immunised with SAg and hybridoma’s were generated. 5*10^4 SAg-specific hybridoma cells were cultured with 5*10^4 fresh or fixed commercial APC (VAVY) cells. Cultures were stimulated with 10 or 25 µg/ml of peptide, as indicated in the graph. T cell activation was measured by IL-2 ELISA on supernatants collected after 48 h. The graph represents the mean of duplicate measurements ± SEM.
# Apitopes (Antigen Processing-Independent epiTOPES) are capable of binding to an MHCII molecule and stimulating a response from SAg-specific T cells without further antigen processing. Variants of peptide 15N3K (SEQ ID NO: 3) were tested for their ability to bind to an MHCII molecule and be presented to a T cell hybridoma without further antigen processing in an in vitro antigen processing independent presentation system (APIPS) assay. In other words, peptides consisting of parts of peptide 15N3K and peptides with various degrees of sequence identity with peptide 15N3K were tested for their ability to behave as apitopes.
# All but three of the peptides are apitopes.
# Antigen-specific hybridoma clones were tested for their reactivity to the peptides, presented by fixed or not fixed (fresh) cells (APCs). 5x10^4 cells were cultured with 10 µg/ml and 25 µg/ml peptide and 5x10^4 fixed or fresh APCs. To fix APCs, cells were incubated with 0.5% paraformaldehyde (Merck, Darmstadt, Germany) (pH7) for 5 min at room temperature (RT). The fixation reaction was stopped by adding 0.4 M glycine (Sigma-Aldrich) and washing the cells in RPMI-10% FCS. After 48 h, antigen-induced IL-2 production was measured by ELISA (R&D Systems, Abingdon, UK).
row,Molecule,Apitope
1,"KKKVIFKKISRDKSVTIKKK (H-KKKVIFKKISRDKSVTIKKK-NH2) [HIP-15B1-KKK, variant of peptide 15N3K]",Yes
2,"KKISRDKSVTIYLG (H-KKISRDKSVTIYLG-NH2) [HIP-15E1, variant of peptide 15N3K]",Yes
3,"KKKVIFKKISRDKSVKKK (H-KKKVIFKKISRDKSVKKK-NH2) [HIP-15B3-KKK, variant of peptide 15N3K]",No
4,"VIFKKISRDKSVTI (H-VIFKKISRDKSVTI-NH2) [HIP-15B1, variant of peptide 15N3K]",Yes
5,"IFKKISRDKSVTIYLG (H-IFKKISRDKSVTIYLG-NH2) [HIP-15CD, variant of peptide 15N3K]",Yes
6,"KKKKKISRDKSVTIYLGKKK (H-KKKKKISRDKSVTIYLGKKK-NH2) [HIP-15E1-KKK, variant of peptide 15N3K]",Yes
7,"KKKISRDKSVTIYLGKKK (H-KKKISRDKSVTIYLGKKK-NH2) [HIP-15G3-KKK, variant of peptide 15N3K]",Yes
8,"KKKIFKKISRDKSVTIYLGKKK (H-KKKIFKKISRDKSVTIYLGKKK-NH2) [HIP-15CD-KKK, variant of peptide 15N3K]",Yes
9,"VIFKKISRDKSV (H-VIFKKISRDKSV-NH2) [HIP-15B3, variant of peptide 15N3K]",No
10,"VIFKKISRDKSVTIYL (H-VIFKKISRDKSVTIYL-NH2) [HIP-15BC, variant of peptide 15N3K]",Yes
11,"KKKVIFKKISRDKSVTIYLKKK (H-KKKVIFKKISRDKSVTIYLKKK-NH2) [HIP-15BC-KKK, variant of peptide 15N3K]",Yes
12,"ISRDKSVTIYLG (H-ISRDKSVTIYLG-NH2) [HIP-15G3, variant of peptide 15N3K]",No
13,"MAASGKTSKSEPNHVIFKKISRDKSV TIYLGNRDYIDHVSQV (H-MAASGKTSKSEPNHVIFKKISRDKSVTIYLGNRDYIDHVSQV-NH2) [HIP-115, variant of peptide 15N3K]",Yes

# Target: T2, HLA-DR2 (DRA*0101 and DRB1*1501) on CD11c+ dendritic cells of DR2tg mice (human, UniProt P01903 26-254; P01911 30-266)
# T2 construct: whole, on cells; DR2tg mice express the HLA-DRB1*1501 molecule but not the mouse MHC class II molecule; also called MHC class II; MHC II molecules
# Assay: in vivo MHC class II loading assay, DR2tg mice, read out by IFNy of peptide-specific CD4+ T cells
# Details: not given
# Method: (§1) FIG. 1: Peptide 9K1K is correctly loaded on MHC class II in vivo. Response of peptide-specific CD4+ T cells towards peptide loaded in vivo on dendritic cells is shown. HLA-DR2-transgenic mice were injected subcutaneously with 100 µg of 9K1K peptide. 2 h post injection, spleens were dissected and CD11 c+ cells (dendritic cells) were isolated. These CD11c+ cells were co-cultured with peptide-specific CD4+ cells for 72 h at 37° C. IFNy was measured in the supernatant of these cultures to evaluate the response to peptide by the CD4+ T cells. (* p<0.05 Mann-Whitney U-test)
# DR3tg or DR2tg mice were injected with 100 µg of peptide in 100 µl PBS subcutaneously (s.c.) in the flank. Control animals received a s.c. injection of 100 µl PBS. After 2 hours, spleens were harvested and single-cell suspensions were prepared. CD11 c+ cells were positively selected using CD11c microbeads according to the manufacturer’s instructions (Miltenyi Biotec, Bergisch Gladbach, Germany). Average purities of >92% were reached. […] After 72 hours, supernatant of these co-cultures was collected and CD4+ T cell activation was analysed by IFNy ELISA (R&D Systems, Abingdon, UK). In a parallel experiment, CD4+ T cell responses towards peptide added in vitro were assessed to make sure the T cells recognize the peptides presented by the CD11 c+ cells.
row,Molecule,binding result
1,H-KKKAFVEQVANVVLKKK-NH2 (Synthetic S-Ag (S-arrestin) derived peptide with KKK added at both ends) [9K1K],binds

# Target: T1, HLA-DR3 (HLA-DRA and DRB1*0301) on …
# Assay: in vivo MHC class II loading assay, DR3tg mice, read out by IFNy of peptide-specific CD4+ T cells
# Details: not given
# Method: as §1, with “2:” for “1:”, “17JK” for “9K1K”, “HLA-DR3-transgenic” for “HLA-DR2-transgenic”, “CD11c+” for “CD11 c+”, “(*** p<0.001” for “(* p<0.05”
# FIG. 3: Peptide 15N3K is correctly loaded on MHC class II in vivo. Response of peptide-specific CD4+ T cells towards peptide loaded in vivo on dendritic cells is shown. HLA-DR3-transgenic mice were injected subcutaneously with 100 µg of 15N3K peptide. 2h post injection, spleens were dissected and CD11c+ cells (dendritic cells) were isolated. These CD11c+ cells were co-cultured with peptide-specific CD4+ cells for 72 h at 37° C. IFNy was measured in the supernatant of these cultures to evaluate the response to peptide by the CD4+ T cells. (*** p<0.001 Mann-Whitney U-test)
# DR3tg or DR2tg mice were injected with 100 µg of peptide in 100 µl PBS subcutaneously (s.c.) in the flank. Control animals received a s.c. injection of 100 µl PBS. After 2 hours, spleens were harvested and single-cell suspensions were prepared. […]
row,Molecule,binding result
1,H-KKKLTFRRDLYFSRVQVYKKK-NH2 (Synthetic S-Ag derived peptide with KKK added at both ends) [17JK],binds
2,H-KKKVIFKKISRDKSVTIYLGKKK-NH2 (Synthetic S-Ag derived peptide with KKK added at both ends) [15N3K],binds
